Results reported in article PMC8541017, “Potent and Selective Inhibitors of Human Monoamine Oxidase A from an Endogenous Lichen Fungus Diaporthe mahothocarpus” (Journal of Fungi, 2021).
Where “and” joins values, the source holds several entries; their conditions need not be identical. Identical values can stand only once. Like-named read-outs stand apart in the source and are kept apart here.

What was measured:
BChE = biological target: T1, BChE (Equus caballus, UniProt P81908); assay: biochemical; parameters: species or system horse; settings: read-out: Residual Activity at 10 µM (%) BChE
T1 construct: from tissue; host or cells: horse serum
Description: AChE from electric eel and BChE from horse serum were used for cholinesterases and assayed with a slight modification of the Ellman method. Shortly, after pre-incubating the enzyme and inhibitor for 15 min in 100 mM of sodium phosphate buffer (pH 7.5), 0.5 mM acetylthiocholine iodide (ATCI) or butyrylthiocholine iodide (BTCI) was added as a substrate for AChE or BChE assay, respectively. Then, 0.5 mM 5,5-dithiobis (2-nitrobenzoic acid) (DTNB) was added for color development for a final volume of 0.5 mL. Enzyme activity was measured for 15 min at room temperature in a kinetic mode at 412 nm.

hMAO-A [1] = biological target: T2, hMAO-A (Homo sapiens, UniProt P21397); format: biochemical; settings: for reversibility of hMAO-A inhibition: recovery test after dialysis; for residual hMAO-A activity after dialysis / residual hMAO-A activity before dialysis: ~2 × IC50: AT 0.040 µM, HAT 0.60 µM, MED 18.0 µM, toloxatone 2.0 µM, clorgyline 0.014 µM
T2 sequence (P21397 1-527): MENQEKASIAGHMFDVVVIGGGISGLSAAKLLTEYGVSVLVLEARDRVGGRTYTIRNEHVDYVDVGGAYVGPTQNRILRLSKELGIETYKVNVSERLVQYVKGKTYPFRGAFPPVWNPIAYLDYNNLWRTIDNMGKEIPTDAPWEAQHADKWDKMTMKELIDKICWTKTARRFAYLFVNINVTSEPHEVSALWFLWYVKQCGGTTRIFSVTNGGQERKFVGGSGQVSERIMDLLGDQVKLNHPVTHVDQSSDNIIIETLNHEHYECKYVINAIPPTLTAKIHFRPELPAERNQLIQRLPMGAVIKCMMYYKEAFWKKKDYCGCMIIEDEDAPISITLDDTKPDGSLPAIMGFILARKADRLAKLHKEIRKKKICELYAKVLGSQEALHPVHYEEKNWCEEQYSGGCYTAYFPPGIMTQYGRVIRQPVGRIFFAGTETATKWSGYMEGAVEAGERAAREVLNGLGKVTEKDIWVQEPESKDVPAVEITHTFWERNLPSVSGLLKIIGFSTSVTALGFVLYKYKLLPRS

BACE1 = BACE1 (Homo sapiens, UniProt P56817); assay: BACE1 activity assay (fluorescence kit); settings: for IC50: IC50 BACE1; for remaining activity at 10 µM: read-out: Residual Activity at 10 µM (%) BACE1
Description: Assays for inhibitory activities of compounds against hMAO-A, hMAO-B, AChE, BChE, and BACE1 were performed at 10-µM concentration of inhibitor.

AChE = biological target: T3, AChE (Electrophorus electricus, UniProt O42275); assay: biochemical; parameters: species or system electric eel; settings: for remaining activity at 10 µM: read-out: Residual Activity at 10 µM (%) AChE
T3 construct: AChE from electric eel and BChE from horse serum were used; from tissue; host or cells: electric eel

hMAO-B [2] = biological target: T4, hMAO-B (Homo sapiens, UniProt P27338); assay: biochemical; settings: for Residual Activity (%) hMAO-B: 1-µM concentration (footnote a)
T4 sequence (P27338 1-520): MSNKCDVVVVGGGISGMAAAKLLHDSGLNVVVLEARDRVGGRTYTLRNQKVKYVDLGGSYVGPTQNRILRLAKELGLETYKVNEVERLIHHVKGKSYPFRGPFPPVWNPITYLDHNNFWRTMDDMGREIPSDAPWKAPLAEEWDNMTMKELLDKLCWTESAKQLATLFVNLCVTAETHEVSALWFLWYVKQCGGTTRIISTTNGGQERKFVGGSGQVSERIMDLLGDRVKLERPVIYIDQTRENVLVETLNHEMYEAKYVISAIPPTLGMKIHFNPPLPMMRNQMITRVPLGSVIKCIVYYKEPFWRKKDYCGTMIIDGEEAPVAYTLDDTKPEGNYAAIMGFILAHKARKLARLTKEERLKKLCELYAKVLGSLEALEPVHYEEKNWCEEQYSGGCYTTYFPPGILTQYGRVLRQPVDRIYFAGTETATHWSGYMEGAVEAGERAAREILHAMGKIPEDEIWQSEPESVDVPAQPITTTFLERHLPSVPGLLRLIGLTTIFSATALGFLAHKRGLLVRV
Description: (§1) Human recombinant MAO-A and MAO-B were assayed in a reaction mixture of 0.5 mL containing 50 mM sodium phosphate buffer (pH 7.2) and the substrates (0.06 mM kynuramine for hMAO-A and 0.3 mM benzylamine for hMAO-B). […] [30, 31]. The reactions were started with the addition of substrates without preincubation of the enzyme and inhibitor.

hMAO-A [3] = biological target: T2, hMAO-A; assay: biochemical; settings: for Residual Activity (%) hMAO-A: 1-µM concentration (footnote a); for inhibition type for hMAO-A: Lineweaver–Burk plot; for SI (selectivity index): hMAO-B/hMAO-A using IC50 values; for remaining activity at 2 µg/mL: read-out: Residual Activity at 2 µg/mL (%) hMAO-A
Description: as §1

hMAO-B [4] = biological target: T4, hMAO-B; parameters: method as in PMID 33530616; settings: cited from earlier work
hMAO-A [5] = biological target: T2, hMAO-A; settings: cited from earlier work
topoisomerase II = settings: cited from earlier work
MAO = settings: read-out: IC50 MAO inhibitory activity; cited from earlier work

Chain of BACE1 (P56817 46-501): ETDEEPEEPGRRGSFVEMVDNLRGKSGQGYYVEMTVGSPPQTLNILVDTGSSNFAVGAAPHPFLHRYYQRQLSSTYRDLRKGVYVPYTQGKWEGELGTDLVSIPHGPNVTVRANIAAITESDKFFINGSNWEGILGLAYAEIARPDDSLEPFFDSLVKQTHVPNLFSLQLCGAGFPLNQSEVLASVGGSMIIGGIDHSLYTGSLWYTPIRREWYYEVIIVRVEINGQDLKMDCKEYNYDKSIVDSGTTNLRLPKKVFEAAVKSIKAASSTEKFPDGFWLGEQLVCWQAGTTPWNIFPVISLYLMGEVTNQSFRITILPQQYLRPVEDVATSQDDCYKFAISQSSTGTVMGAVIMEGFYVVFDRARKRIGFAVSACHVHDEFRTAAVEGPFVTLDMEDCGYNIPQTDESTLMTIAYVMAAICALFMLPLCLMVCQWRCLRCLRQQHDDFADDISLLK
T1 sequence (P81908 whole entry): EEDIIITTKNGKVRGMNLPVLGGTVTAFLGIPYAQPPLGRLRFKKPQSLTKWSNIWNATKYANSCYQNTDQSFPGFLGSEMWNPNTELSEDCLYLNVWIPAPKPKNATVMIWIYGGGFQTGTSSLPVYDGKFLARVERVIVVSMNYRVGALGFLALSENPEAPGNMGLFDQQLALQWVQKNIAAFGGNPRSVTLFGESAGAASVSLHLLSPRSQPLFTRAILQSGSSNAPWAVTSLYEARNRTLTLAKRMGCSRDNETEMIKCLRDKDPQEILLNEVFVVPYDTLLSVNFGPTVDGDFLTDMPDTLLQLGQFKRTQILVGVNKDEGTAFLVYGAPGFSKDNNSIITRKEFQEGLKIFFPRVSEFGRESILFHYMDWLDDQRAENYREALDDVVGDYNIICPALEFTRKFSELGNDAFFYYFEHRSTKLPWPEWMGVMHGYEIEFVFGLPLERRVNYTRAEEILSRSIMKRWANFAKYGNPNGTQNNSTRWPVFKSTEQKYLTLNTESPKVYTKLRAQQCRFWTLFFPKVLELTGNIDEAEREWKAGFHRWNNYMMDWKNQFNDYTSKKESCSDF
T3 sequence (O42275 24-633): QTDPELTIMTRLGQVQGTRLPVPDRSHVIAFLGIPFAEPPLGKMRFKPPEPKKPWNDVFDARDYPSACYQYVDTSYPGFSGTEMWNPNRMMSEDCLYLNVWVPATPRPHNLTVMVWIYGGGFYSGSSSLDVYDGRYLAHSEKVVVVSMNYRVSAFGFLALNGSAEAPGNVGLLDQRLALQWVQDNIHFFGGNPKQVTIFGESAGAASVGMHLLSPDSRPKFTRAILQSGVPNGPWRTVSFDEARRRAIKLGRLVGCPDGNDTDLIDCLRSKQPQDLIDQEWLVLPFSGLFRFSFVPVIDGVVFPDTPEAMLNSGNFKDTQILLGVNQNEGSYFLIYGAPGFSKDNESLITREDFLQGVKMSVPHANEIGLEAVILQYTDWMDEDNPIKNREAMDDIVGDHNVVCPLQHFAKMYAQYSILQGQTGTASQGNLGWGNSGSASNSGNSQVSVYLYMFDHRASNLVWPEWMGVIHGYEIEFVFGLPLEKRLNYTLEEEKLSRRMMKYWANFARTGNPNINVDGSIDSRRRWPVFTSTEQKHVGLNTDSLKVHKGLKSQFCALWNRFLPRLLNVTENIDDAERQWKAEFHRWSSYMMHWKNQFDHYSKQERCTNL

Compound | remaining activity at 10 µM (BChE) [%] | reversibility of hMAO-A inhibition (hMAO-A [1]) | residual hMAO-A activity after dialysis (hMAO-A [1]) [%] | residual hMAO-A activity before dialysis (hMAO-A [1]) [%] | IC50 (BACE1) [µM] | remaining activity at 10 µM (BACE1) [%] | IC50 (AChE) [µM] | remaining activity at 10 µM (AChE) [%] | IC50 (hMAO-B [2]) [µM] | Residual Activity (%) hMAO-B (hMAO-B [2]) [%] | Ki (hMAO-A [3]) [µM] | times higher hMAO-A inhibitory activity than toloxatone (hMAO-A [3]) [times] | Residual Activity (%) hMAO-A (hMAO-A [3]) [%] | IC50 (hMAO-A [3]; IC50 hMAO-A) [µM] | inhibition type for hMAO-A (hMAO-A [3]) | SI (selectivity index) (hMAO-A [3]) | remaining activity at 2 µg/mL (hMAO-A [3]) [%] | IC50 (hMAO-A [5]) [µM] | further results
Cc1c(O)c(O)cc2oc(=O)c3c(O)cc(O)cc3c12 [HAT, 5′-hydroxy-alternariol] | 96.2 ± 2.3 | reversible inhibitors | 79.4 | 42.1 | 24.7 | 71.3 ± 3.8 | 19.9 ± 0.2 | 65.6 ± 3.8 | > 40 | 83.3 ± 4.0 | 0.116 | 3.5 | 17.7 ± 1.1 | 0.31 ± 0.02 | reversible competitive inhibitors | >129 | 3.39 ± 3.43 |  | times effective against hMAO-A than alternariol monomethyl ether (hMAO-A [3]; ratio of IC50 values): 5.5 times
CC1CC(=O)c2c(O)cccc2O1 (centres unmarked) [hydroxy-2-methyl-chroman-4-one] |  |  |  |  |  |  |  |  |  |  |  |  |  |  |  |  |  | 14 | IC50 (hMAO-B [4]): 3.23 µM
COc1cc(O)c2c(=O)oc3cc(O)cc(C)c3c2c1 [alternariol monomethyl ether] |  |  |  |  |  |  |  |  |  |  |  |  |  |  |  |  |  | 1.71 | 
CC(=O)O[C@H]1C=CC(=O)O[C@H]1[C@@H]1[C@H](C)[C@H]2C=CC=C[C@@H]1O2 [MED, mycoepoxydiene] | 95.5 ± 5.5 | reversible inhibitors | 83.7 | 28.7 | 35.9 ± 0.3 | 80.5 ± 2.7 |  | 65.2 ± 2.7 |  |  |  |  |  |  | reversible competitive inhibitors | >4.59 |  |  | IC50 (AChE; read-out: IC50 AChE): 18.6 ± 1.3 µM; IC50 (hMAO-B [2]; read-out: IC50 hMAO-B): > 40 µM; remaining activity at 10 µM (hMAO-B [2]; read-out: Residual Activity at 10 µM (%) hMAO-B): 85.4 ± 6.9%; Ki (hMAO-A [3]; Lineweaver–Burk secondary plot, read-out: Ki hMAO-A): 3.76 µM; remaining activity at 2 µg/mL (hMAO-A [3]; isolated compounds from ELF29, 2 µg/mL): 66.7 ± 1.84%; IC50 (hMAO-A [3]; read-out: IC50 hMAO-A): 8.68 µM and 8.7 µM; remaining activity at 10 µM (hMAO-A [3]; read-out: Residual Activity at 10 µM (%) hMAO-A): 42.7 ± 0.9%
Cc1cc(O)cc2oc(=O)c3c(O)cc(O)cc3c12 [AT, alternariol] | 93.3 ± 4.1 | reversible inhibitors | 60.5 | 33.5 | 36.7 ± 3.3 | 80.9 ± 0.2 | 10 ± 0.9 | 58.7 ± 2 | 20.7 ± 2.2 | 75.6 ± 2.3 | 0.0075 | 54.0 | −3.1 ± 0.0 | 0.02 ± 0.001 | reversible competitive inhibitors | 1035 | -5.41 ± 0.98 |  | concentration at which ROS formation and topoisomerase II interaction relate to toxicity (topoisomerase II): > 10 µM
CCCCCC(=O)c1c(O)cc2c(c1O)C(=O)c1c(O)cc(OC)cc1C2=O [solorinic acid] |  |  |  |  |  |  |  |  |  |  |  |  |  |  |  |  |  |  | IC50 (MAO): 14.3 µM
